Each structure is given as a SMILES string. *1 amine or outer side, *2 acyl side, *3 side chain or, on linkers, in order; H or OH if unused. Where a SMILES comes first, the peptide text is derived from it. [ ]: non-standard residue; d: D form. Trp(4-Cl)(βS-Me) = C[C@@H](c1c[nH]c2cccc(Cl)c12)[C@H](N)C(=O)O; Bip(4'-COOH) = N[C@@H](Cc1ccc(-c2ccc(C(=O)O)cc2)cc1)C(=O)O; 1Nal(3S-Me) = C[C@@H](c1cccc2ccccc12)[C@H](N)C(=O)O; X8 = O=C([C@H](CCc1cccc(C(F)(F)F)c1)N[*:1])[*:2]; Phe(4-COOH) = N[C@@H](Cc1ccc(C(=O)O)cc1)C(=O)O; X10 = O=C([C@H](CC1CCC(F)(F)CC1)N[*:1])[*:2]; h3Pal(5-CN) = N#Cc1cncc(CC[C@H](N)C(=O)O)c1; Phe(4-NH2) = Nc1ccc(C[C@H](N)C(=O)O)cc1; Pro(4R-NH2) = N[C@H]1CN[C@H](C(=O)O)C1; 1Nal = N[C@@H](Cc1cccc2ccccc12)C(=O)O; AEF = NCCOc1ccc(C[C@H](N)C(=O)O)cc1; hTyr = N[C@@H](CCc1ccc(O)cc1)C(=O)O; 4Pal = N[C@@H](Cc1ccncc1)C(=O)O; dDab = NCC[C@@H](N)C(=O)O; Orn = NCCC[C@H](N)C(=O)O; dNMeA = CN[C@H](C)C(=O)O; Dab = NCC[C@H](N)C(=O)O; Nva = CCC[C@H](N)C(=O)O; Dap = NC[C@H](N)C(=O)O; Aib = CC(C)(N)C(=O)O

The target of the assay is T1, Recombinant human IL-1β (Homo sapiens, UniProt P01584).
T1 construct: purchased BioLegend 579404
T1 sequence (P01584 117-269): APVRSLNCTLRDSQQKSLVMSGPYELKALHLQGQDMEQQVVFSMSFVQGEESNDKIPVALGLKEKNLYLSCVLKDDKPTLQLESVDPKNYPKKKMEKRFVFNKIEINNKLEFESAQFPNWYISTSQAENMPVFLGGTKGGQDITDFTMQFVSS
Nature of the assay: IL-6 assay in MRC5 cells: inhibition of IL-1β induced IL-6 secretion (AlphaLISA). It is filed as cell-based. Particulars: inhibition of IL-1β induced IL-6 secretion in MRC5 cells; read-out: MRC5 IC50. The essentials: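 IL-1β at 2×EC80 in seeding medium (EMEM, 0.025% BSA) preincubated 1 h at ambient temperature with compound, then 3000 MRC5 cells/well added and incubated overnight at 37 °C, 5% CO2. IL-6 in conditioned medium quantified by AlphaLISA; IC50 from 4-parameter logistic fit.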
In general terms: Alpha assays give light when donor and acceptor beads are brought close together.
For `CC(=O)NCCOc1ccc(C[C@@H]2NC(=O)[C@H](CCc3ccc(O)cc3)NC(=O)[C@@H](C)NC(=O)[C@H](CC(C)C)NC(=O)[C@H](Cc3c[nH]c4ccccc34)NC(=O)[C@H](Cc3ccc(-c4ccc(C(=O)O)cc4)cc3)NC(=O)CNC(=O)[C@@H](C)N(C)C(=O)[C@H](CC(=O)O)NC(=O)[C@H]([C@@H](C)c3cccc4ccccc34)NC(=O)[C@@H]3C[C@@H](N)CN3C(=O)CNC(=O)[C@H](Cc3ccc(C(=O)O)cc3)NC(=O)[C@H](Cc3c[nH]c4ccccc34)NC2=O)cc1` [Example 125] (cyclo([AEF](Ac)W[Phe(4-COOH)]G[Pro(4R-NH2)][1Nal(3S-Me)]D[dNMeA]G[Bip(4'-COOH)]WL[dA][hTyr])), the IC50 – broadly, the point on the concentration scale where inhibition reaches its midpoint – stood at 0.064 nM.
`CC(=O)NCCOc1ccc(C[C@@H]2NC(=O)[C@H](CCc3ccc(O)cc3)NC(=O)[C@@H](CCN)NC(=O)[C@H](CC(C)C)NC(=O)[C@H](Cc3c[nH]c4ccccc34)NC(=O)[C@H](Cc3ccc(-c4ccc(C(=O)O)cc4)cc3)NC(=O)CNC(=O)[C@@H](C)N(C)C(=O)[C@H](CC(=O)O)NC(=O)[C@H]([C@@H](C)c3cccc4ccccc34)NC(=O)[C@@H]3C[C@@H](N)CN3C(=O)CNC(=O)[C@H](Cc3ccc(C(=O)O)cc3)NC(=O)[C@H](Cc3c[nH]c4ccccc34)NC2=O)cc1` [Example 126] (cyclo([AEF](Ac)W[Phe(4-COOH)]G[Pro(4R-NH2)][1Nal(3S-Me)]D[dNMeA]G[Bip(4'-COOH)]WL[dDab][hTyr])): the IC50 came to 0.37 nM.
In the case of `CC(=O)NCCOc1ccc(C[C@@H]2NC(=O)[C@H](CCc3ccc(O)cc3)NC(=O)C(C)(C)NC(=O)[C@H](CCCN)NC(=O)[C@H](Cc3c[nH]c4ccccc34)NC(=O)[C@H](Cc3ccc(-c4ccc(C(=O)O)cc4)cc3)NC(=O)CNC(=O)[C@@H](C)N(C)C(=O)[C@H](CC(=O)O)NC(=O)[C@H]([C@@H](C)c3cccc4ccccc34)NC(=O)[C@@H]3C[C@@H](N)CN3C(=O)CNC(=O)[C@H](Cc3ccc(C(=O)O)cc3)NC(=O)[C@H](Cc3c[nH]c4ccccc34)NC2=O)cc1` [Example 127] (cyclo([AEF](Ac)W[Phe(4-COOH)]G[Pro(4R-NH2)][1Nal(3S-Me)]D[dNMeA]G[Bip(4'-COOH)]W[Orn][Aib][hTyr])), the IC50 came to 0.432 nM.
`CC(=O)NCCOc1ccc(C[C@@H]2NC(=O)[C@H](CCc3ccc(O)cc3)NC(=O)[C@@H](C)NC(=O)[C@H](CO)NC(=O)[C@H](Cc3c[nH]c4ccccc34)NC(=O)[C@H](Cc3ccc(-c4ccc(C(=O)O)cc4)cc3)NC(=O)CNC(=O)[C@@H](C)N(C)C(=O)[C@H](CC(=O)O)NC(=O)[C@H]([C@@H](C)c3cccc4ccccc34)NC(=O)[C@@H]3C[C@@H](N)CN3C(=O)CNC(=O)[C@H](Cc3ccc(C(=O)O)cc3)NC(=O)[C@H](Cc3c[nH]c4ccccc34)NC2=O)cc1` [Example 128] (cyclo([AEF](Ac)W[Phe(4-COOH)]G[Pro(4R-NH2)][1Nal(3S-Me)]D[dNMeA]G[Bip(4'-COOH)]WS[dA][hTyr])): the IC50 came to 0.09 nM.
Regarding `CC(=O)NCCOc1ccc(C[C@@H]2NC(=O)[C@H](CCc3ccc(O)cc3)NC(=O)[C@@H](C)NC(=O)[C@H](CN)NC(=O)[C@H](Cc3c[nH]c4ccccc34)NC(=O)[C@H](Cc3ccc(-c4ccc(C(=O)O)cc4)cc3)NC(=O)CNC(=O)[C@@H](C)N(C)C(=O)[C@H](CC(N)=O)NC(=O)[C@H]([C@@H](C)c3cccc4ccccc34)NC(=O)[C@@H]3C[C@@H](N)CN3C(=O)CNC(=O)[C@H](Cc3ccc(C(=O)O)cc3)NC(=O)[C@H](Cc3c[nH]c4ccccc34)NC2=O)cc1` [Example 129] (cyclo([AEF](Ac)W[Phe(4-COOH)]G[Pro(4R-NH2)][1Nal(3S-Me)]N[dNMeA]G[Bip(4'-COOH)]W[Dap][dA][hTyr])), the IC50 was 0.0828 nM.
Consider `CC(=O)NCCOc1ccc(C[C@@H]2NC(=O)[C@H](CCc3cncc(C#N)c3)NC(=O)C(C)(C)NC(=O)[C@H](CN)NC(=O)[C@H](Cc3cccc4ccccc34)NC(=O)[C@H](Cc3ccc(-c4ccc(C(=O)O)cc4)cc3)NC(=O)CNC(=O)[C@@H](C)N(C)C(=O)[C@H](CC(=O)O)NC(=O)[C@H]([C@@H](C)c3c[nH]c4cccc(Cl)c34)NC(=O)[C@@H]3C[C@@H](N)CN3C(=O)CNC(=O)[C@H](Cc3ccc(C(=O)O)cc3)NC(=O)[C@H](Cc3c[nH]c4ccccc34)NC2=O)cc1` [Example 130] (cyclo([AEF](Ac)W[Phe(4-COOH)]G[Pro(4R-NH2)][Trp(4-Cl)(βS-Me)]D[dNMeA]G[Bip(4'-COOH)][1Nal][Dap][Aib][h3Pal(5-CN)])), for which the half-maximal inhibitory concentration (IC50) amounted to 0.114 nM.
As for `CC(=O)NCCOc1ccc(C[C@@H]2NC(=O)[C@H](CCc3ccc(O)cc3)NC(=O)[C@@H](C)NC(=O)[C@H](CC(C)C)NC(=O)[C@H](Cc3cccc4ccccc34)NC(=O)[C@H](Cc3ccc(-c4ccc(C(=O)O)cc4)cc3)NC(=O)CNC(=O)[C@@H](C)N(C)C(=O)[C@H](CC(=O)O)NC(=O)[C@H]([C@@H](C)c3c[nH]c4cccc(Cl)c34)NC(=O)[C@@H]3C[C@@H](N)CN3C(=O)CNC(=O)[C@H](Cc3ccc(C(=O)O)cc3)NC(=O)[C@H](Cc3c[nH]c4ccccc34)NC2=O)cc1` [Example 131] (cyclo([AEF](Ac)W[Phe(4-COOH)]G[Pro(4R-NH2)][Trp(4-Cl)(βS-Me)]D[dNMeA]G[Bip(4'-COOH)][1Nal]L[dA][hTyr])), the IC50 is 0.0498 nM.
Take `CC(=O)NCCOc1ccc(C[C@@H]2NC(=O)CNC(=O)C(C)(C)NC(=O)[C@H](CCCN)NC(=O)[C@H](Cc3cccc4ccccc34)NC(=O)[C@H](Cc3ccc(-c4ccc(C(=O)O)cc4)cc3)NC(=O)CNC(=O)[C@@H](C)N(C)C(=O)[C@H](CC(=O)O)NC(=O)[C@H]([C@@H](C)c3c[nH]c4cccc(Cl)c34)NC(=O)[C@@H]3C[C@@H](N)CN3C(=O)CNC(=O)[C@H](Cc3ccc(C(=O)O)cc3)NC(=O)[C@H](Cc3c[nH]c4ccccc34)NC2=O)cc1` [Example 132] (cyclo([AEF](Ac)W[Phe(4-COOH)]G[Pro(4R-NH2)][Trp(4-Cl)(βS-Me)]D[dNMeA]G[Bip(4'-COOH)][1Nal][Orn][Aib]G)): the IC50 stood at 0.37 nM.
On to `CC(=O)NCCOc1ccc(C[C@@H]2NC(=O)[C@H](Cc3ccc(N)cc3)NC(=O)[C@@H](C)NC(=O)[C@H](CO)NC(=O)[C@H](Cc3cccc4ccccc34)NC(=O)[C@H](Cc3ccc(-c4ccc(C(=O)O)cc4)cc3)NC(=O)CNC(=O)[C@@H](C)N(C)C(=O)[C@H](CC(=O)O)NC(=O)[C@H]([C@@H](C)c3c[nH]c4cccc(Cl)c34)NC(=O)[C@@H]3C[C@@H](N)CN3C(=O)CNC(=O)[C@H](Cc3ccc(C(=O)O)cc3)NC(=O)[C@H](Cc3c[nH]c4ccccc34)NC2=O)cc1` [Example 133] (cyclo([AEF](Ac)W[Phe(4-COOH)]G[Pro(4R-NH2)][Trp(4-Cl)(βS-Me)]D[dNMeA]G[Bip(4'-COOH)][1Nal]S[dA][Phe(4-NH2)])), for which the IC50 worked out at 0.766 nM.
Turning to `CC(=O)NCCOc1ccc(C[C@@H]2NC(=O)[C@H](CCc3ccc(O)cc3)NC(=O)[C@@H](C)NC(=O)[C@H](CCN)NC(=O)[C@H](Cc3ccncc3)NC(=O)[C@H](Cc3ccc(-c4ccc(C(=O)O)cc4)cc3)NC(=O)CNC(=O)[C@@H](C)N(C)C(=O)[C@H](CC(=O)O)NC(=O)[C@H]([C@@H](C)c3c[nH]c4cccc(Cl)c34)NC(=O)[C@@H]3C[C@@H](N)CN3C(=O)CNC(=O)[C@H](Cc3ccc(C(=O)O)cc3)NC(=O)[C@H](Cc3c[nH]c4ccccc34)NC2=O)cc1` [Example 134] (cyclo([AEF](Ac)W[Phe(4-COOH)]G[Pro(4R-NH2)][Trp(4-Cl)(βS-Me)]D[dNMeA]G[Bip(4'-COOH)][4Pal][Dab][dA][hTyr])), the IC50 is 0.379 nM.
For `CC(=O)NCCOc1ccc(C[C@@H]2NC(=O)[C@H](CCc3ccc(O)cc3)NC(=O)[C@@H](C)NC(=O)[C@H](CC(C)C)NC(=O)[C@H](Cc3ccncc3)NC(=O)[C@H](Cc3ccc(-c4ccc(C(=O)O)cc4)cc3)NC(=O)CNC(=O)[C@@H](C)N(C)C(=O)[C@H](CC(=O)O)NC(=O)[C@H]([C@@H](C)c3c[nH]c4cccc(Cl)c34)NC(=O)[C@@H]3C[C@@H](N)CN3C(=O)CNC(=O)[C@H](Cc3ccc(C(=O)O)cc3)NC(=O)[C@H](Cc3c[nH]c4ccccc34)NC2=O)cc1` [Example 135] (cyclo([AEF](Ac)W[Phe(4-COOH)]G[Pro(4R-NH2)][Trp(4-Cl)(βS-Me)]D[dNMeA]G[Bip(4'-COOH)][4Pal]L[dA][hTyr])), the IC50 turned out to be 0.31 nM.
For the molecule `CCC[C@@H]1NC(=O)[C@H](Cc2ccncc2)NC(=O)[C@H](Cc2ccc(-c3ccc(C(=O)O)cc3)cc2)NC(=O)CNC(=O)[C@@H](C)N(C)C(=O)[C@H](CC(=O)O)NC(=O)[C@H]([C@@H](C)c2c[nH]c3cccc(Cl)c23)NC(=O)[C@@H]2C[C@@H](N)CN2C(=O)CNC(=O)[C@H](Cc2ccc(C(=O)O)cc2)NC(=O)[C@H](Cc2c[nH]c3ccccc23)NC(=O)[C@H](Cc2ccc(OCCNC(C)=O)cc2)NC(=O)[C@H](CC2CCC(F)(F)CC2)NC(=O)[C@@H](C)NC1=O` [Example 136] (cyclo([AEF](Ac)W[Phe(4-COOH)]G[Pro(4R-NH2)][Trp(4-Cl)(βS-Me)]D[dNMeA]G[Bip(4'-COOH)][4Pal][Nva][dA][X10])), the IC50 is 0.396 nM.
`CC(=O)NCCOc1ccc(C[C@@H]2NC(=O)[C@H](CCc3cccc(C(F)(F)F)c3)NC(=O)[C@@H](C)NC(=O)[C@H](CC(C)C)NC(=O)[C@H](CCCCN)NC(=O)[C@H](Cc3ccc(-c4ccc(C(=O)O)cc4)cc3)NC(=O)CNC(=O)[C@@H](C)N(C)C(=O)[C@H](CC(=O)O)NC(=O)[C@H]([C@@H](C)c3c[nH]c4cccc(Cl)c34)NC(=O)[C@@H]3C[C@@H](N)CN3C(=O)CNC(=O)[C@H](Cc3ccc(C(=O)O)cc3)NC(=O)[C@H](Cc3c[nH]c4ccccc34)NC2=O)cc1` [Example 137] (cyclo([AEF](Ac)W[Phe(4-COOH)]G[Pro(4R-NH2)][Trp(4-Cl)(βS-Me)]D[dNMeA]G[Bip(4'-COOH)]KL[dA][X8])): the IC50 amounted to 0.0938 nM.

Values taken from patent publication US20230406885A1, “CYCLIC PEPTIDES FOR TRAPPING INTERLEUKIN-1 BETA” (MERCK SHARP & DOHME LLC, priority 2022, published 2023).
